Reference: publication PMC6930570, “2-Arylidene-1-indandiones as Pleiotropic Agents with Antioxidant and Inhibitory Enzymes Activities” (Molecules, 2019)

Assay: Superoxide anion radical scavenging activity (PMS/NADPH/NBT)
Format: biochemical
Details: 100 μM (stated for compound 3)
Description: The compounds have been tested to scavenge superoxide anion radicals. However, no results were recorded under the experimental conditions.
The superoxide anion producing system was set up by mixing PMS, NADPH, and air oxygen. The production of superoxide anion was estimated by the nitrobluetetrazole NBT method. The reaction mixture containing compounds, 3 μM PMS, 78 μM NADPH, and 25 μM NBT in […] phosphate buffer pH 7.4 was incubated for 2 min at room temperature and the absorption was measured at 560 nm against a blank containing PMS. The tested compounds were pre-incubated for 2 min before adding NADPH. Caffeic acid was used as an appropriate standard (76%).

In the case of `O=C(O)/C=C/c1ccc(O)c(O)c1` [Caffeic acid, reference compound], the “superoxide anion scavenging activity” value was 76%.
